# Experiments:
# ASIC channels = target: T1, ASIC channels (Homo sapiens, UniProt P78348); conditions: cited from earlier work
# T1 sequence (P78348 1-528): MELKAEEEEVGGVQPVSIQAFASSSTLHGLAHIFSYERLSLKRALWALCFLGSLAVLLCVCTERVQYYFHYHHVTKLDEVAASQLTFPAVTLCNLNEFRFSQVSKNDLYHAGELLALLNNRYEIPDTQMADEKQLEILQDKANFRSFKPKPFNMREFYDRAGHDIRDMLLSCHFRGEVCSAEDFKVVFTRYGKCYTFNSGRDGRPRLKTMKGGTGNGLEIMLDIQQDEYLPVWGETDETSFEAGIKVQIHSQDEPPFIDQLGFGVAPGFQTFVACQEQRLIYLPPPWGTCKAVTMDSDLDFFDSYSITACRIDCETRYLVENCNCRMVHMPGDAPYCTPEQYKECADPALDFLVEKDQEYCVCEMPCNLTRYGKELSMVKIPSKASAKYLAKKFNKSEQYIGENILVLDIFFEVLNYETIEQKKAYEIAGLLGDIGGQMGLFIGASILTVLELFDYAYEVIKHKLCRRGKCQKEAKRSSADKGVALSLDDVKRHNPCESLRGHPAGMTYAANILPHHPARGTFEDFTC
# cortical neurons = conditions: primary cultures of cortical neurons; cited from earlier work
# [1] = test system: Schaffer collateral-CA1 synapses in hippocampal slices; assay: Baseline field EPSP recording in hippocampal slices; type: cell-based; conditions: KA 5 mM; slices from +/+ and −/− mice
# Experimental: (§1) Transverse hippocampal slices (350-400 μm) were prepared from wild type (+/+) and ASIC knock out (−/−) littermates at 2-4 months of age. For the LTP studies, the applicant was blinded to genotype. The slices were sectioned in ice-cold artificial cerebrospinal fluid (ACSF) containing (in mM) 119 NaCl, 2.5 KCl, 2.5 CaCl2, 1.0 NaH2PO4, 1.3 MgSO4, 26.2 NaHCO3, 11 glucose, pH 7.4, bubbled with 95% O2/5% CO2, and then were incubated in identical solution at 31° C. for 2-5 hours before recording.
# Standard extracellular field potential recording techniques were used. Experiments were performed in a submerged chamber, heated to 31±0.5° C. Field postsynaptic excitatory potentials (EPSPs) were evoked in CA1 stratum radiatum by stimulation of Schaffer collaterals with a bipolar stainless steel electrode that was put at the border of CA3-CA1 subfields and recorded with 3M NaCl-filled glass pipettes (<5 MSΩ) using a biological amplifier (WPI, Iso-DAME, FL., USA). A 100 μs test stimulation was delivered every 30 s by a stimulus isolation unit (Grass, SD9, Mass., USA). […] LTP was measured by normalizing the EPSP slopes after HFS to the mean slope of the baseline EPSP before HFS. Data were digitized (10 kHz), filtered at 1 kHz (eight-pole Bessel Filter), monitored on-line, and stored on hard disk using PULSE 8.41 (HEKA, Lambrecht, Germany). […]
# [2] = test system: Schaffer collateral-CA1 synapses in hippocampal slices; assay: LTP induced by HFS in hippocampal slices; type: cell-based, mice; conditions: 10 μM PMA
# Experimental: as §1
# Standard extracellular field potential recording techniques were used. Experiments were performed in a submerged chamber, heated to 31±0.5° C. Field postsynaptic excitatory potentials (EPSPs) were evoked in CA1 stratum radiatum by stimulation of Schaffer collaterals with a bipolar stainless steel electrode that was put at the border of CA3-CA1 subfields and recorded with 3M NaCl-filled glass pipettes (<5 MSΩ) using a biological amplifier (WPI, Iso-DAME, FL., USA). A 100 μs test stimulation was delivered every 30 s by a stimulus isolation unit (Grass, SD9, Mass., USA). Input-output curves were obtained by plotting the stimulus voltage against the amplitude of EPSPs. […] Stimulus intensity was adjusted to evoke half-maximal responses. LTP was induced by a high-frequency stimulation (HFS, 100 Hz, 1 s, at test intensity). Paired-pulse facilitation (PPF) was observed by applying paired pulses with different intervals (20, 50 ms). LTP was measured by normalizing the EPSP slopes after HFS to the mean slope of the baseline EPSP before HFS. Data were digitized (10 kHz), filtered at 1 kHz (eight-pole Bessel Filter), monitored on-line, and stored on hard disk using PULSE 8.41 (HEKA, Lambrecht, Germany). Off-line analysis was performed by PATCHMACHINE 1.0 (Hoshi Laboratory, Philadelphia, Pa., USA) and IGORPRO 4.0 (WaveMetrics, Lake Oswego, Oreg., USA). Unless otherwise noted, two-sample t-test was used to calculate statistical
compound,measurement,setting,value
neuropeptide FF,modulation of the response of ASIC channels to acid,ASIC channels,generating a sustained component of current
Phe-Met-Arg-Phe-NH2 [FMRFamide],modulation of the response of ASIC channels to acid,ASIC channels,generating a sustained component of current
N=C(N)NC(=O)c1nc(Cl)c(N)nc1N [amiloride],effect on H+-evoked currents,cortical neurons,inhibition
"O=C(O)c1cc(=O)c2ccccc2[nH]1 [KA, kynurenic acid]",effect on baseline EPSPs,[1],abolished EPSPs
"CCCCCCCCCCCCCC(=O)O[C@@H]1[C@@H](C)[C@@]2(O)[C@@H](C=C(CO)C[C@]3(O)C(=O)C(C)=C[C@@H]23)[C@@H]2C(C)(C)[C@]12OC(C)=O [PMA, phorbol 12-myristate 13-acetate]",Mean EPSP amplitude at 40 min. following HFS,[2]; +/+ slices,167±15%
same,Mean EPSP amplitude at 40 min. following HFS,[2]; −/− slices,158±11%
same,effect on LTP,[2]; −/− slices,restores LTP

# Reference: patent US20120015396A1, “COMPOSITIONS AND METHODS FOR MODULATING THE ACID-SENSING ION CHANNEL (ASIC)” (Department of Veteran's Affair, United States Technology …, priority 2002, published 2012)
